From patent publication US7045495B2 (Sloan-Kettering Institute for Cancer Research, priority 1996, dated 2006)

Tests used:
[1] = test system: MKN-74; experiment: cell viability, trypan blue dye exclusion; assay type: cell-based, human; conditions: 24 hours, single drug or concomitant; bryostatin 1 μM, Mitomycin-C 1 μg/ml, Taxol 50 μM, Cisplatin 50 μM
Excerpt: Recently our laboratory has studied the effects of combining bryostatin with chemotherapy both in vitro and in vivo against solid tumors. For our in vitro studies, we have been using the human gastric cancer cell line MKN-74. Cytotoxicity has been examined both by cell viability assays using trypan blue dye exclusion assays and by the induction of apoptosis using quantitative fluorescent microscopy.

[2] = test system: MDA-MB-468 cells; experiment: cell proliferation studies; assay type: cell-based, human
[3] = design: species or system patients; conditions: in vivo
Procedure: Individual patients could receive up to six cycles of treatment with the same dose of safingol and doxorubicin (DOX) every 21 days, until signs of tumor progression or unacceptable toxicity occurs, or until the patient's cumulative life-time dose of doxorubicin exceeds 400 mg/m^2 with an additional cycle of treatment. Prior DOX therapy was allowed up to a dose of 280 mg/m^2 as long as the left ventricular ejection fraction was>50%. The starting dose of safingol was 15 mg/m^2.
In fact the white blood count nadirs have increased with increasing safingol dose. Dose escalation above 120 mg/m^2 is planned.
This was associated with no changes in reticulocyte count, no evidence of hemolysis on the peripheral smear, no “pink” discoloration to the plasma, and no evidence or urine hemosiderin. This was believed to be related to relatively poor venous access which only became apparent on the first day of therapy. The patient was retreated according to applicants, protocol criteria for grade I hemolysis which included infusion of safingol through a central vein and at one half the concentration (twice the total volume but the same total dose). Under these conditions the patient has experienced no further evidence of hemolysis.

SMILES	% of Cells Alive [1] [%]	highest non-toxic dose (cell proliferation studies) [2] [µM]	dose limiting hematologic toxicity [3]	hemolysis [3]
CO[C@@]12[C@H](COC(N)=O)C3=C(C(=O)C(C)=C(N)C3=O)N1C[C@@H]1N[C@@H]12 [MMC, Mitomycin-C]	76			
CCCCCCCCCCCCCCC[C@H](O)[C@@H](N)CO [safingol, L-threo-dihydrosphingosine]		50	no-dose limiting hematologic toxicity	only one patient has experienced a grade I hemolysis
